In patent US20130197030A1, “Substituted 1,3-Dioxanes and There Uses” (Evolva Sa, priority 2007, published 2013):

Target: T1, Human Recombinant (E. coli) PPARgamma (Homo sapiens, UniProt P37231)
T1 construct: host or cells: E. coli
T1 sequence (P37231 1-505): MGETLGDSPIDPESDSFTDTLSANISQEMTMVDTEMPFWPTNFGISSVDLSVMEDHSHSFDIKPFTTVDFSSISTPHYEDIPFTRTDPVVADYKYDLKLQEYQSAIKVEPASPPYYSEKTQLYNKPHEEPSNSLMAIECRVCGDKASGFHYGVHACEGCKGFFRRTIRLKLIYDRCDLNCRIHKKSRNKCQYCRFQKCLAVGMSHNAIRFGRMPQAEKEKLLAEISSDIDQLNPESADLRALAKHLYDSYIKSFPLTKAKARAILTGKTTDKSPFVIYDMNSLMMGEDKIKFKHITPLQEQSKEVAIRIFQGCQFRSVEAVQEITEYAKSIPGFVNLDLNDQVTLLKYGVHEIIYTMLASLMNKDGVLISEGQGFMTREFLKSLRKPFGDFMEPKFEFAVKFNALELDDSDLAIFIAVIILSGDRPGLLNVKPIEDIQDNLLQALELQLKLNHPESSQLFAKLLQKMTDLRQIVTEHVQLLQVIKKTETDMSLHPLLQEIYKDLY
Test: PPAR gamma binding assay
Details: at 30 μM
Procedure: Incubation: 120 min. at 4° C.
The results are expressed as a percent of control specific binding ((measured specific binding/control specific binding)×100) obtained in the presence of the test compounds. The IC50 values (concentration causing a half-maximal inhibition of control specific binding) and Hill coefficients (nil) were determined by non-linear regression analysis of the competition curves generated with mean replicate values using Hill equation curve fitting (Y=D+[(A−D)/(1+(C/C50)nH)], where Y=specific binding, D=minimum specific binding, A=maximum specific binding, C=compound concentration, C50=IC50, and nH=slope factor). This analysis was performed using a software developed at Cerep (Hill software) and validated by comparison with data generated by the commercial software SigmaPlot 4.0 for Windows® (© 1997 by SPSS Inc.). The inhibition constants (Ki) were calculated using the Cheng Prusoff equation (Ki=IC50/(1+(L/KD)), where L=concentration of radioligand in the assay, and KD=affinity of the radioligand for the receptor).

## O=C(O)CC/C=C\C[C@H]1CO[C@@H](c2ccccc2Cl)O[C@H]1c1ccccc1O [Compound B, (Z)-6-((2R,4R,5S)-2-(2-chlorophenyl)-4-(2-hydroxyphenyl)-1,3-dioxan-5-yl)hex-4-enoic acid, reference compound]
  PPARγ binding: no binding
